One block for each molecule: values may come before it.
Key:
[1] = biological target: T1, Human Adenosine A2a Receptor (Homo sapiens, UniProt P29274); test: Human adenosine A2a receptor calcium flow detection experiment (FLIPR, Fluo-4, NECA agonist); assay type: cell-based; settings: A2a stable CHO cell line, antagonist mode vs NECA at EC80
T1 construct: host or cells: CHO
Protocol: Human Adenosine A2a Receptor Calcium Flow Detection Experiment
A2a stable cell line was constructed by Shanghai Wuxi Apptec, and the host cell was CHO.
Fluo-4 Direct kit (Invitrogen, article number: F10471). After the fluorescence detection reagent (specifically binding to calcium ions and causing an increase of fluorescence signal) in the kit was incubated with the cells for an appropriate time, the compound was added to stimulate the cells and induced changes in intracellular calcium flow, thus causing the changes in fluorescence signal, which can reflect the intensity of the agonistic or inhibiting activity of the compounds.
F12+10% fetal bovine serum+geneticin 300 μg/mL+blasticidin 2 μg/mL
Hanks balanced salt buffer (Invitrogen)+20 mM HEPES, which was prepared before each use
The compounds to be tested were dissolved in DMSO to prepare a 10 mM mother liquor. The test compound was diluted to 0.2 mM with DMSO, and the reference compound CGS-15943 was diluted to 0.015 mM with DMSO. Then a 10-point 3-fold serial dilution was performed with ECHO, then 900 nL of the dilutions was transferred to a compound plate (Greiner-781280), and 30 μL of the compound dilution buffer was added. The final initial concentration of the compounds to be tested was 1 μM and that of CGS-15943 was 0.075 μM.
Frozen A2A cells were suspended to 1×10^6 cells/mL with the culture medium after resuscitation, seeded with 20 μL/well into a 384-well polylysine coated cell plate (Greiner-781946), then incubated under 5% CO2 at 37° C. overnight.
The cell plate prepared the day before was taken out from the incubator, 20 μL 2×Fluo-4 Direct™ buffer was added into each cell, then incubated under 5% CO2 at 37° C. in an incubator for 50 minutes, and was allowed to stand at room temperature for 10 minutes.
Dilution of the agonist NECA: NECA with an initial concentration of 0.15 mM was 3-fold serially diluted with Echo to prepare 10 dilutions, and then 900 nL of the dilutions was transferred to the corresponding compound plate; then 30 μL of the compound dilution buffer was added into the corresponding compound plate. The final initial concentration was 750 nM.
FLIPR instrument and software were performed according to the set program, 10 μL of the compound dilution buffer was added into the cell plate, and the fluorescence signal was read. 10 μL of the agonist reference compound with a predetermined concentration was added to the cell plate and the fluorescence signal was read. After reading, the data were exported by “Max-Min” and “Read 90 to Maximum allowed” methods in the software, the EC80 on A2A cell line was calculated, and 6×EC80 concentration of agonist was prepared. The agonist reference compound with a concentration of 6×EC80 was prepared with buffer salt solution, and 30 μL/well was aliquoted into the corresponding compound plate for later use.
FLIPR instrument and software were performed according to the set program, 10 μL of test compounds and reference compound with a predetermined concentration was added into the cell plate, and the fluorescence signal was read. 10 μL of the agonist reference compound with a concentration of 6×EC80 was added into the cell plate and the fluorescence signal was read. For the agonist detection of the compounds, the data were exported by “Max-Min” and “Read 1 to 90” methods in the software. For the antagonist detection of the compounds, the data were exported by “Max-Min” and “Read 90 to Maximum allowed” methods in the software. The data were analyzed by GraphPad Prism 5.0 and the IC50 value of the test compounds was calculated.

[2] = Pharmacokinetic evaluation after single intravenous injection and single oral administration in mice; assay type: in vivo; settings: mouse, female Balb/C mice, plasma, single IV / single PO study; for bioavailability: read-out: Bioavailability F; for clearance: read-out: Clearance rate; for AUC: read-out: Concentration integral AUC; for half-life: read-out: Half-life T1/2 (converted)
Protocol: Experimental materials: Balb/C mice (female, 15-30 g, 7-9 weeks old, Shanghai Linchang) were used.
Experimental method: The pharmacokinetic characteristics of the compound after intravenous injection and oral administration were tested on rodents by standard scheme, in the experiment, the candidate compounds were prepared into clear solutions and administrated to mice by single intravenous injection and single oral administration. Intravenous injection (IV) menstruum was a mixed solvent of 5% DMSO/5% polyethylene glycol hydroxystearate/90% water, and oral (PO) menstruum was a mixed solvent of 1% Tween 80, 9% PEG400 and 90% water (pH=3). The whole blood sample within 48 hours was collected, centrifuged at 3000 g at 4° C. for 15 minutes, and the supernatant was separated to obtain the plasma sample. An acetonitrile solution containing internal standard with a volume of 20 times that of the plasma sample was added to precipitate protein, the supernatant was centrifuged and an equal volume of water was added, then the supernatant was taken for injection. The blood drug concentration was quantitatively analyzed by LC-MS/MS analysis method, and the pharmacokinetic parameters such as peak concentration, peak time, clearance rate, half-life, area under the drug concentration-time curve, bioavailability, etc. were calculated.

[3] = system: mouse colon cancer CT26 cells; test: In vivo pharmacodynamic test, CT26 subcutaneous tumor model, alone or combined with CS1003; parameters: species or system BALB/C mice; settings: CS1003 1 mg/kg intraperitoneal, Day 7, 10, 13, 16
Protocol: Experimental materials: BALB/C mice (female); mouse colon cancer CT26 cells (Typical Culture Preservation Commission cell bank, Chinese Academy of Sciences) were cultured in vitro in monolayer with RPMI-1640 medium containing 10% fetal bovine serum in a 37° C., 5% CO2 incubator. Trypsin-EDTA was used for routine digestion and passage. When the cells were in exponential growth phase and the saturation was 80%-90%, the cells were collected and counted.
Compound preparation: Embodiment 19 was weighted and added into the menstruum (10% PEG400+90% (10% Cremophor aqueous solution)) to prepare samples of 2.5 mg/mL, 5 mg/mL and 10 mg/mL respectively. 72 μL CS1003 (PD-1 antibody) solution (25 mg/mL) was taken and 1.728 mL Dulbecco's phosphate buffer (DPBS) was added to prepare a 1 mg/mL solution, then 16.2 mL DPBS was added to prepare a 0.1 mg/mL clear solution.
Experimental operation: the cells were resuspended in Dulbecco's phosphate buffer at a density of 3×10^6 cells/mL. 0.1 mL DPBS (containing 3×10^5 CT26 cells) was subcutaneously inoculated on the right back of each mouse. On the day of inoculation, the mice were randomly divided into groups with 9 mice each group according to the weight of the mice, then administration was started and continued for 20 days. During the whole experiment, the animals were weighed and the animal's health was monitored every day, in case of any special situation, the person in charge of the relevant project would be informed in time and the corresponding records would be made. Tumor diameter was measured twice a week with a vernier caliper. The calculation formula of the tumor volume was: V=0.5×a×b^2, wherein a and b represent the long and short diameters of the tumor respectively.
The antitumor effect of the compounds was evaluated by GI (%) or relative tumor proliferation rate T/C (%). Relative tumor proliferation rate T/C (%)=Vt/VC×100% (Vt: average tumor volume of treatment group; Vc: average tumor volume of negative control group). Vt and VC were the data on the same day. GI (%), tumor inhibition rate. GI (%)=1−Vt/VC×100%.
Statistical analysis was conducted using SPSS software based on the relative tumor volume and tumor weight at the end of the experiment. […] P<0.05 was considered as significant difference.

T1 sequence (P29274 whole entry): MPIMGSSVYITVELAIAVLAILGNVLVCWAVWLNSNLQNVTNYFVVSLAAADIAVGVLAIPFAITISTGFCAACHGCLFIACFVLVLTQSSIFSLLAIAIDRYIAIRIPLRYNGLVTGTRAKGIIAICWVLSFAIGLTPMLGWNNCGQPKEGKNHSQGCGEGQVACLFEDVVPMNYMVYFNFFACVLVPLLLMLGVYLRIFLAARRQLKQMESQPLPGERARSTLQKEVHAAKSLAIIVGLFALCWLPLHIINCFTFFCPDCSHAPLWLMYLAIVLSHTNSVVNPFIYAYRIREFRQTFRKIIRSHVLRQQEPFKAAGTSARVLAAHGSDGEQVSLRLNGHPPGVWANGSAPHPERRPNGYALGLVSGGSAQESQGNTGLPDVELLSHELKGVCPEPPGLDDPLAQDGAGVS

Molecule: Cc1cc(-c2c(-c3ccc(F)cc3)nc(N)c3nccnc23)cc(C)n1 [Embodiment 1]
IC50 [1]: 4.77 nM
bioavailability [2]: 57.6%
clearance [2]: 16.5 mL/min/kg
AUC [2]: 16.7 µM·h
half-life [2]: 36 min

Molecule: Cc1cc(-c2c(-c3ccc(F)cc3)nc(N)c3nccnc23)cc(Cl)n1 [Embodiment 2]
IC50 [1]: 1.73 nM
bioavailability [2]: 76.2%
clearance [2]: 17.1 mL/min/kg
AUC [2]: 20.3 µM·h
half-life [2]: 46.8 min

Molecule: Nc1nc(-c2ccc(F)cc2)c(-c2cc(Cl)nc(C(F)(F)F)c2)c2nccnc12 [Embodiment 3]
IC50 [1]: 9.46 nM
bioavailability [2]: 69%
clearance [2]: 18.1 mL/min/kg
AUC [2]: 15.7 µM·h
half-life [2]: 83.4 min

Molecule: Nc1nc(-c2ccc(F)cc2)c(-c2ccc3nccnc3c2)c2nccnc12 [Embodiment 5]
IC50 [1]: 27.8 nM

Molecule: Nc1nc(-c2ccc(F)cc2)c(-c2ccn3ncnc3c2)c2nccnc12 [Embodiment 7]
IC50 [1]: 31.4 nM

Molecule: Nc1nc(-c2ccc(F)cc2)c(-c2ccc3c(c2)CCCN3)c2nccnc12 [Embodiment 8]
IC50 [1]: 26.8 nM

Molecule: Nc1nc(-c2ccc(F)cc2)c(-c2ccc3nncn3c2)c2nccnc12 [Embodiment 9]
IC50 [1]: 15.6 nM

Molecule: Cc1cc(-c2c(-c3ccc(F)cc3)nc(N)c3nccnc23)cc(C(F)(F)F)n1 [Embodiment 10]
IC50 [1]: 9.2 nM

Molecule: Cc1cc(-c2c(-c3ccc(F)cc3)nc(N)c3cccnc23)cc(Cl)n1 [Embodiment 11]
IC50 [1]: 1.79 nM

Molecule: Nc1nc(-c2ccc(F)cc2)c(-c2ccc3nnccc3c2)c2nccnc12 [Embodiment 13]
IC50 [1]: 9.4 nM

Molecule: Cc1cc(-c2c(-c3ccc(Cl)cc3)nc(N)c3nccnc23)cc(Cl)n1 [Embodiment 15]
IC50 [1]: 3.84 nM

Molecule: Nc1ncc2cc(-c3c(-c4ccc(F)cc4)nc(N)c4nccnc34)ccc2n1 [Embodiment 16]
IC50 [1]: 6.1 nM

Molecule: Nc1nc(-c2ccc(F)cc2)c(-c2ccc3cnccc3c2)c2nccnc12 [Embodiment 18]
IC50 [1]: 78.8 nM

Molecule: Nc1nc(-c2ccc(F)cc2)c(-c2ccc3[nH]ncc3c2)c2nccnc12 [Embodiment 20]
IC50 [1]: 3.32 nM

Molecule: Nc1nc(-c2ccc(F)cc2)c(-c2ccc3[nH]nc(Cl)c3c2)c2nccnc12 [Embodiment 22]
IC50 [1]: 38 nM

Molecule: Cc1cc(-c2c(-c3ccc(F)cc3)nc(N)c3ncccc23)cc(Cl)n1 [Embodiment 24]
IC50 [1]: 5.52 nM

Molecule: Cn1ccc(-c2nc(N)c3nccnc3c2-c2ccc3ncnn3c2)n1 [Embodiment 29]
IC50 [1]: 3.18 nM

Molecule: Nc1nc(-c2ccc(Cl)s2)c(-c2ccc3ncnn3c2)c2nccnc12 [Embodiment 32]
IC50 [1]: 1.8 nM

Molecule: Cc1cc(-c2c(-c3ccc(Cl)s3)nc(N)c3nccnc23)cc(Cl)n1 [Embodiment 33]
IC50 [1]: 24 nM

B1: CS1003: full-length, fully humanized immunoglobulin G4 (IgG4) monoclonal antibody for PD-1 (antibody, chains of the INN, looked up, V domains shown)
VH: QVQLVQSGAEVKKPGSSVKVSCKASGFTFTTYYISWVRQAPGQGLEYLGYINMGSGGTNYNEKFKGRVTITADKSTSTAYMELSSLRSEDTAVYYCAIIGYFDYWGQGTMVTVSS
VL: DVVMTQSPLSLPVTLGQPASISCRSSQSLLDSDGGTYLYWFQQRPGQSPRRLIYLVSTLGSGVPDRFSGSGSGTDFTLKISRVEAEDVGVYYCMQLTHWPYTFGQGTKLEIK
tumor volume ([3]; 20th day after starting administration): 487.34+109.07 mm^3
tumor inhibition rate ([3]; 20th day, no significant difference vs control): 42.47%

Continued by falling IC50 [1], values first:

IC50 [1]: 1.56 nM
bioavailability [2]: 95.4%
clearance [2]: 1.72 mL/min/kg
AUC [2]: 259 µM·h
half-life [2]: 197 min
Molecule: Nc1nc(-c2ccc(F)cc2)c(-c2ccc3ncnn3c2)c2ncccc12 [Embodiment 12]

IC50 [1]: 1.14 nM
clearance [2]: 5.87 mL/min/kg
AUC [2]: 24.1 µM·h
half-life [2]: 49.2 min
Molecule: Nc1nc(-c2ccc(F)cc2)c(-c2ccc3ncnn3c2)c2nccnc12 [Embodiment 6]

IC50 [1]: 1.04 nM
Molecule: Nc1nc(-c2ccc(F)cc2)c(-c2cc(Cl)c3ncnn3c2)c2nccnc12 [Embodiment 34]

IC50 [1]: 1.03 nM
Molecule: Cc1cc(-c2c(-c3ccc(C)o3)nc(N)c3nccnc23)cc(Cl)n1 [Embodiment 28]

IC50 [1]: 0.95 nM
Molecule: Nc1nc(-c2ccc(F)cc2)c(-c2ccc3ncsc3c2)c2nccnc12 [Embodiment 23]

IC50 [1]: 0.92 nM
Molecule: Nc1nc(-c2ccc(F)cc2)c(-c2ccc3ncccc3c2)c2nccnc12 [Embodiment 4]

IC50 [1]: 0.92 nM
Molecule: Nc1nc(-c2ccc(F)cc2)c(-c2cc(Cl)c3ncccc3c2)c2nccnc12 [Embodiment 26]

IC50 [1]: 0.89 nM
Molecule: Cc1cc(-c2c(-c3ccc(F)cc3)nc(N)c3cncnc23)cc(Cl)n1 [Embodiment 25]

IC50 [1]: 0.82 nM
Molecule: Nc1nc(-c2ccc(F)cc2)c(-c2cc(Cl)c3[nH]ncc3c2)c2nccnc12 [Embodiment 21]

IC50 [1]: 0.8 nM
Molecule: Nc1nc(-c2ccc(F)cc2)c(-c2cc(F)c3ncccc3c2)c2nccnc12 [Embodiment 17]

IC50 [1]: 0.76 nM
Molecule: Nc1nc(-c2ccc(F)cc2)c(-c2ccc3ncncc3c2)c2nccnc12 [Embodiment 14]

IC50 [1]: 0.58 nM
Molecule: Cc1ccc(-c2nc(N)c3nccnc3c2-c2ccc3ncnn3c2)o1 [Embodiment 31]

IC50 [1]: 0.56 nM
Molecule: Nc1nc(-c2ccccc2)c(-c2ccc3ncnn3c2)c2ncccc12 [Embodiment 27]

IC50 [1]: 0.54 nM
Molecule: Nc1nc(-c2ccc(F)cc2)c(-c2ccc3nccn3c2)c2nccnc12 [Embodiment 19]

IC50 [1]: 0.35 nM
Molecule: Nc1nc(-c2ccc(Cl)o2)c(-c2ccc3ncnn3c2)c2nccnc12 [Embodiment 30]
